“Also recorded” adds a separate entry of the source. Like-named read-outs stand apart in the source and are kept apart here.
What was measured:
[1] = biological target: T1, human recombinant aromatase (Homo sapiens, UniProt P11511); design: method as in PMID 27373643; details: value marked as from earlier report; read-out: IC50 against human recombinant aromatase; cited from earlier work
T1 construct: purchased BD Biosciences (Heidelberg, Germany)
T1 sequence (P11511 1-503): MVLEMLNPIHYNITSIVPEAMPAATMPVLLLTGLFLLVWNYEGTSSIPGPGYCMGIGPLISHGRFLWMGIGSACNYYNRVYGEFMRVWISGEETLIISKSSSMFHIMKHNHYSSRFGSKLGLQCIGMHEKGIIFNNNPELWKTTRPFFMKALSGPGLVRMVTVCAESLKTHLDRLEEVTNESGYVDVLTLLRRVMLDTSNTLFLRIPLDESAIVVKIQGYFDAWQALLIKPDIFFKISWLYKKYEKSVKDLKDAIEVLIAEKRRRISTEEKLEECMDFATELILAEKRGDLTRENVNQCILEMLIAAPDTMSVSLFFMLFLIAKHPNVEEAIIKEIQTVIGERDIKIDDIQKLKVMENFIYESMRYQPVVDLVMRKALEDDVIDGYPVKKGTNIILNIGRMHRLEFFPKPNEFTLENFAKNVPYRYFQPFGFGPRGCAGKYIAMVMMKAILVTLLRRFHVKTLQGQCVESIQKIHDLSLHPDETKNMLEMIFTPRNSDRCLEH

[2] = biological target: T1, human recombinant aromatase; test: Inhibitory effects against human recombinant aromatase (DBF fluorescence assay); assay type: biochemical; details: for IC50: substrate DBF, mean, N = 3
Experimental: Dibenzylfluorescein (DBF) and human CYP19 + P450 reductase SUPERSOMES (human recombinant aromatase) were purchased from BD Biosciences (Heidelberg, Germany) and testosterone from Tokyo Chemical Industry Co., Ltd. (Tokyo, Japan). The other chemicals used in this study were purchased from Wako Pure Chemical Industries, Co., Ltd. (Osaka, Japan).
The experiments were performed according to a previously described method. Briefly, a test sample was dissolved in dimethyl sulfoxide (DMSO), and the solution was diluted with potassium phosphate buffer (50 mM, pH 7.4) containing MgCl2 (0.5 mM) to obtain the test sample solution (concentration of DMSO: 2%). An enzyme/substrate solution in the buffer (20 µL, 1.6 µM DBF, 8 nM human recombinant aromatase) and the test sample solution (20 µL) were mixed in a 96-well half-area black microplate (Greiner Bio-One, Frickenhausen, Germany) at 37 °C for 10 min. The enzymatic reaction was initiated by adding NADPH solution (40 µL, 500 µM) at 37 °C for 30 min. After 30 min of incubation, NaOH (30 µL, 2 mM) was added, and the reaction mixture was incubated at 37 °C for 2 h to induce fluorescent signals (final DMSO concentration, 0.5%; aromatase, 2 nM; and NADPH, 250 µM). Fluorescence was measured using a fluorescence microplate reader (SH-9000, CORONA […] Co., Ltd., Ibaraki, Japan) at an excitation wavelength of 435 nm and emission wavelength of 535 nm. Experiments were performed in triplicate, and the IC50 values were determined graphically.

[3] = biological target: T1, human recombinant aromatase; test: Kinetic analysis of inhibitory activity against human recombinant aromatase using Lineweaver-Burk plots (testosterone substrate, estradiol EIA); assay type: biochemical; details: for Ki: testosterone 0.4–4 µM as substrate, secondary plot of Lineweaver–Burk, N = 3; for mode of inhibition of aromatase: Lineweaver–Burk plots
Source text: In the assay system, we fixed the enzyme concentration, changed the substrate concentration, and obtained the kinetic parameters of the enzyme-catalyzed reaction using Lineweaver–Burk double reciprocal plot 1/[V] vs. 1/[S]. The inhibition constant Ki indicates the potency of an inhibitor and equals the concentration required to produce half-maximal inhibition. The Ki value was obtained from the intersection of the secondary plot with the x-axis (apparent Km/Vmax vs. inhibitor).
Experiments were performed using a previously described protocol, modified by using various concentrations of testosterone (0.4–4 µM) as substrates instead of DBF and the plate was heated at 37 °C for 15 min. After the reaction, the enzyme was inactivated by heating in a boiling water bath for 2 min. An estradiol EIA kit (Oxford Biomedical Research, Inc., Oxford, MI, USA) was used to develop an estradiol standard curve to determine the concentration of estradiol produced and to correlate the concentration of estradiol with the reaction velocity. The mode of inhibition was analyzed using the Lineweaver–Burk plot of the inverse of the reaction velocity of estradiol plotted on the vertical axis and the inverse of the final concentration of the substrate on the horizontal axis, with and without the test substance (Figure S27).

SMILES | IC50 [1] [µM] | IC50 [2] [µM] | Ki [3] [µM] | other results
CCC(C)C(=O)c1c2c(c3oc(=O)cc(-c4ccccc4)c3c1O)C=CC(C)(C)O2 (stereo not shown) [compound 29, Mammea A/AB cyclo D] | 24.1 | – | – | –
CCCC(=O)c1c(O)c(CC=C(C)C)c(O)c2c(C(CC)OC(C)=O)cc(=O)oc12 (stereo not shown) [compound 38, Mammea E/BC] | – | 23.2 | 11.3 | –
CCCC(=O)c1c(O)c(C/C=C(\C)CCC=C(C)C)c2c3c(cc(=O)oc13)CC(C)O2 (stereo not shown) [compound 9, Mammeasin D] | 3.6 | – | 4.3 | –
CCCC(=O)c1c(O)c(C/C=C(\C)CCC=C(C)C)c(O)c2c([C@H](CC)OC(C)=O)cc(=O)oc12 [compound 6, Mammeasin A] | 8.7 | – | 5.1 | –
CCCc1cc(=O)oc2c(C(=O)C(C)CC)c(O)c3c(c12)OC(C)(CCC=C(C)C)C=C3 (stereo not shown) [compound 13, Mammeasin H] | – | 17.9 | – | –
CCC(C)C(=O)c1c(O)c2c(c3c([C@@H](O)CC)cc(=O)oc13)OC(C)(C)C=C2 (stereo partly shown) [compound 42, Deacetylammea E/BB cyclo D] | – | 12.1 | – | –
CCCC(=O)c1c(O)c2c(c3c([C@@H](O)CC)cc(=O)oc13)OC(C)(C)C=C2 [compound 35, Deacetylammea E/BC cyclo D] | 16.6 | – | – | –
CCCC(=O)c1c2c(c3oc(=O)cc(-c4ccccc4)c3c1O)C(OC)C(C(C)(C)O)O2 (stereo not shown) [compound 3, mammeasin M] | – | > 100 | – | inhibition at 100 µM ([2]; 100 µM, value in parentheses): 43.4%
CCCC(=O)c1c(O)c(CC=C(C)C)c2oc(=O)cc(-c3ccccc3)c2c1O [compound 26, Mammea A/AC] | 13.7 | – | – | –
CC(C)=CCc1c(O)c(C(=O)CC(C)C)c(O)c2c(-c3ccccc3)cc(=O)oc12 [compound 24, Mammea A/AA] | 6.9 | – | 13.7 | –
CCC(C)C(=O)c1c(O)c2c(c3c([C@@H](O)CC)cc(=O)oc13)OC(C)(CCC=C(C)C)C=C2 (stereo partly shown) [compound 11, Mammeasin F] | – | 12.4 | 12.3 | –
CCCC(=O)c1c(O)c2c(c3c(CCC)cc(=O)oc13)OC(C)(C)C=C2 [compound 1, mammeasin K] | – | 7.6 | 3.4 | mode of inhibition of aromatase [3]: competitively inhibit; also recorded: competitive inhibition; also recorded: competitive inhibitors
CC[C@H](OC(C)=O)c1cc(=O)oc2c(C(=O)CC(C)C)c(O)c(C/C=C(\C)CCC=C(C)C)c(O)c12 [compound 7, Mammeasin B] | 4.1 | – | 1.3 | mode of inhibition of aromatase [3]: competitive inhibition; also recorded: competitive inhibitors
CCC(C)C(=O)c1c(O)c(CC=C(C)C)c2oc(=O)cc([C@@H](O)CC)c2c1O (stereo partly shown) [compound 21, Kayaessamin F] | 19.7 | – | – | –
CCC(C)C(=O)c1c(O)c(CC=C(C)C)c(O)c2c(C(CC)OC(C)=O)cc(=O)oc12 (stereo not shown) [compound 37, Mammea E/BB] | 18.6 | – | – | –
CC(C)CC(=O)c1c2c(c3oc(=O)cc(-c4ccccc4)c3c1O)C=CC(C)(C)O2 [compound 28, Mammea A/AA cyclo D] | 7.2 | – | 1.2 | mode of inhibition of aromatase [3]: competitive inhibition; also recorded: competitive inhibitors
CCCC(=O)c1c2c(c3oc(=O)cc(CCC)c3c1O)C=CC(C)(C)O2 [compound 32, Mammea B/AC cyclo D] | 24.6 | – | – | –
CCCC(=O)c1c(O)c2c(c3c([C@@H](O)CC)cc(=O)oc13)OC(C)(CCC=C(C)C)C=C2 (stereo partly shown) [compound 23, Kayaessamin I] | – | 9.3 | 14.7 | –
CC[C@H](O)c1cc(=O)oc2c3c(c(C(=O)CC(C)C)c(O)c12)OC(C)(C)C=C3 [compound 41, Deacetylammea E/AA cyclo D] | – | 19.3 | – | –
CCCc1cc(=O)oc2c3c(c(C(=O)C(C)CC)c(O)c12)OC(C)(CCC=C(C)C)C=C3 (stereo not shown) [compound 15, Mammeasin J] | – | 23.4 | – | –

SMILES | IC50 [1] [µM] | IC50 [2] [µM] | Ki [3] [µM] | other results
CC[C@H](O)c1cc(=O)oc2c(C(=O)CC(C)C)c(O)c3c(c12)OC(C)(CCC=C(C)C)C=C3 (stereo partly shown) [compound 10, Mammeasin E] | – | 11.1 | 7.1 | –
CCCC(=O)c1c2c(c3oc(=O)cc(-c4ccccc4)c3c1O)CC(C(C)(C)O)O2 (stereo not shown) [compound 40, Mammea A/AC cyclo F] | – | 19.9 | – | –
CC(C)=CCC/C(C)=C/Cc1c(O)c(C(=O)C(C)C)c2oc(=O)cc3c2c1OC(C)C3 (stereo not shown) [compound 8, Mammeasin C] | 2.7 | – | 2.8 | mode of inhibition of aromatase [3]: competitive inhibition; also recorded: competitive inhibitors
CC[C@H](O)c1cc(=O)oc2c(CC=C(C)C)c(O)c(C(=O)CC(C)C)c(O)c12 [compound 22, Kayaessamin G] | 27.8 | – | – | –
CCCC(=O)c1c(O)c2c(c3c(CCC)cc(=O)oc13)OC(C)(CCC=C(C)C)C=C2 (stereo not shown) [compound 12, Mammeasin G] | – | 21.3 | – | –
CCCC(=O)c1c(O)c2c(c3c(-c4ccccc4)cc(=O)oc13)OC(C)(C)C=C2 [compound 2, mammeasin L] | – | 20.7 | – | –
CC[C@H](OC(C)=O)c1cc(=O)oc2c(C(=O)CC(C)C)c(O)c(CC=C(C)C)c(O)c12 [compound 36, Mammea E/BA] | 16.6 | – | – | –
CCC(C)C(=O)c1c(O)c(C/C=C(\C)CCC=C(C)C)c(O)c2c([C@H](CC)OC(C)=O)cc(=O)oc12 (stereo partly shown) [compound 16, Surangin B] | 9.8 | – | 1.3 | mode of inhibition of aromatase [3]: competitive inhibition; also recorded: competitive inhibitors
C/C=C/c1cc(=O)oc2c(C(=O)CCC)c(O)c3c(c12)OC(C)(CCC=C(C)C)C=C3 (stereo not shown) [compound 14, Mammeasin I] | – | 21.3 | – | –
CCC(C)C(=O)c1c(O)c(C/C=C(\C)CCC=C(C)C)c(O)c2c([C@@H](O)CC)cc(=O)oc12 (stereo partly shown) [compound 17, Surangin C] | 8.8 | – | 2.6 | mode of inhibition of aromatase [3]: competitive inhibition; also recorded: competitive inhibitors
CCC(OC(C)=O)c1cc(=O)oc2c(C(=O)C(C)C)c(O)c3c(c12)OC(C)(C)C=C3 (stereo not shown) [compound 34, Mammea E/BD cyclo D] | – | 21.1 | – | –
CCCC(=O)c1c2c(c3oc(=O)cc(-c4ccccc4)c3c1O)C=CC(C)(C)O2 [compound 30, Mammea A/AC cyclo D] | 35 | – | – | –
CCC(C)C(=O)c1c(O)c(CC=C(C)C)c2oc(=O)cc(-c3ccccc3)c2c1O (stereo not shown) [compound 25, Mammea A/AB] | 8.6 | – | 8.1 | –
CC[C@H](O)c1cc(=O)oc2c(C(=O)CC(C)C)c(O)c(C/C=C(\C)CCC=C(C)C)c(O)c12 [compound 18, Surangin D] | 9.8 | – | – | –
CCCC(=O)c1c(O)c(C/C=C(\C)CCC=C(C)C)c(O)c2c([C@@H](O)CC)cc(=O)oc12 [compound 19, Kayeassamin A] | – | 10 | – | –
CCCC(=O)c1c(O)c(CC=C(C)C)c2oc(=O)cc([C@@H](O)CC)c2c1O [compound 20, Kayaessamin E] | 14.9 | – | – | –
CC(C)=CCc1c(O)c(C(=O)C(C)C)c(O)c2c(-c3ccccc3)cc(=O)oc12 [compound 27, Mammea A/AD] | 11.3 | – | – | –
CCCC(=O)c1c(O)c2c(c3c(C(CC)OC(C)=O)cc(=O)oc13)OC(C)(C)C=C2 (stereo not shown) [compound 33, Mammea E/BC cyclo D] | 11.5 | – | 2.3 | mode of inhibition of aromatase [3]: competitive inhibition; also recorded: competitive inhibitors
CCCc1cc(=O)oc2c3c(c(C(=O)C(C)CC)c(O)c12)OC(C)(C)C=C3 (stereo not shown) [compound 31, Mammea B/AB cyclo D] | 3.1 | – | 0.84 | mode of inhibition of aromatase [3]: competitive inhibitory activity; also recorded: competitive inhibition; also recorded: competitive inhibitors

Reference: article PMC9570088, “Phytochemicals with Chemopreventive Activity Obtained from the Thai Medicinal Plant Mammea siamensis (Miq.) T. Anders.: Isolation and Structure Determination of New Prenylcoumarins with Inhibitory Activity against Aromatase” (International Journal of Molecular Sciences, 2022)
